Test results reported in the supplement of paper PMC10132981, “Formate overflow drives toxic folate trapping in MTHFD1 inhibited cancer cells” (Nature Metabolism, 2023).
Values joined by “and” are separate entries in the source; they are usually repeats but may differ in a detail not shown here. Equal values may be shown once.

Columns and labels:
SW620 [1] = test: cell viability relative to vehicle (resazurin, 96 h); higher = more viable
Method: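 SW620 WT or MTHFD2-/- cells were treated for 96 h with a compound dilution series (log10 M) in RPMI with normal or dialysed FBS. Viability was read by resazurin and is given as % of vehicle.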

SW620 [2] = test: cell viability relative to lowest-dose well (resazurin, 96 h); higher = more viable; details: RPMI + 10% FBS
Summary of the method: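 HCT116 (500 cells/well) or SW620 (1,000 cells/well) cells were seeded in 50 µl RPMI with 10% FBS plus a metabolite supplement in 384-well plates. Compounds were dispensed from 10 mM DMSO stocks as dilution series, and plates were incubated 96 h at 37 °C, 5% CO2. Viability was read as resazurin (10 µg ml^−1) conversion to resorufin after 5 h, by fluorescence at 595 nm. Values are percent of the lowest-dose well, with independent replicate cultures.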

Cc1c(N2CCN(C)[C@@H](C)C2)ccc2c3c(c(=O)oc12)CN(C(=O)c1ccc(NS(C)(=O)=O)c(OC(F)(F)F)c1)CC3
SW620 [1]
Details	cell viability [%]
log10 compound concentration (M): -5, supplement / serum: 50μM Hypoxanthine, base medium: RPMI + dialysed FBS	59.7
log10 compound concentration (M): -5, supplement / serum: 50μM Thymidine + 50μM Hypoxanthine, base medium: RPMI + dialysed FBS	79
log10 compound concentration (M): -5, supplement / serum: 50μMThymidine, base medium: RPMI + dialysed FBS	13
log10 compound concentration (M): -5, supplement / serum: No metabolite, base medium: RPMI + dialysed FBS	11
log10 compound concentration (M): -5, supplement / serum: RPMI + Dialyzed FBS + 50μM Hypoxanthine, base medium: RPMI-1640	59.7
log10 compound concentration (M): -5, supplement / serum: RPMI + Dialyzed FBS, base medium: RPMI-1640	11
log10 compound concentration (M): -5, supplement / serum: RPMI + Normal FBS, base medium: RPMI-1640	78.9
log10 compound concentration (M): -5.47712, supplement / serum: 50μM Hypoxanthine, base medium: RPMI + dialysed FBS	73.8
log10 compound concentration (M): -5.47712, supplement / serum: 50μM Thymidine + 50μM Hypoxanthine, base medium: RPMI + dialysed FBS	87.3
log10 compound concentration (M): -5.47712, supplement / serum: 50μMThymidine, base medium: RPMI + dialysed FBS	16.4
log10 compound concentration (M): -5.47712, supplement / serum: No metabolite, base medium: RPMI + dialysed FBS	16.8
log10 compound concentration (M): -5.47712, supplement / serum: RPMI + Dialyzed FBS + 50μM Hypoxanthine, base medium: RPMI-1640	73.8
log10 compound concentration (M): -5.47712, supplement / serum: RPMI + Dialyzed FBS, base medium: RPMI-1640	16.8
log10 compound concentration (M): -5.47712, supplement / serum: RPMI + Normal FBS, base medium: RPMI-1640	59.76
log10 compound concentration (M): -5.95424, supplement / serum: 50μM Hypoxanthine, base medium: RPMI + dialysed FBS	79.2
log10 compound concentration (M): -5.95424, supplement / serum: 50μM Thymidine + 50μM Hypoxanthine, base medium: RPMI + dialysed FBS	82.2
log10 compound concentration (M): -5.95424, supplement / serum: 50μMThymidine, base medium: RPMI + dialysed FBS	37.8
log10 compound concentration (M): -5.95424, supplement / serum: No metabolite, base medium: RPMI + dialysed FBS	37.9
log10 compound concentration (M): -5.95424, supplement / serum: RPMI + Dialyzed FBS + 50μM Hypoxanthine, base medium: RPMI-1640	79.2
log10 compound concentration (M): -5.95424, supplement / serum: RPMI + Dialyzed FBS, base medium: RPMI-1640	37.9
log10 compound concentration (M): -5.95424, supplement / serum: RPMI + Normal FBS, base medium: RPMI-1640	66.4
log10 compound concentration (M): -6.43136, supplement / serum: 50μM Hypoxanthine, base medium: RPMI + dialysed FBS	78.9
log10 compound concentration (M): -6.43136, supplement / serum: 50μM Thymidine + 50μM Hypoxanthine, base medium: RPMI + dialysed FBS	89.1
log10 compound concentration (M): -6.43136, supplement / serum: 50μMThymidine, base medium: RPMI + dialysed FBS	64.5
log10 compound concentration (M): -6.43136, supplement / serum: No metabolite, base medium: RPMI + dialysed FBS	67.9
log10 compound concentration (M): -6.43136, supplement / serum: RPMI + Dialyzed FBS + 50μM Hypoxanthine, base medium: RPMI-1640	78.9
log10 compound concentration (M): -6.43136, supplement / serum: RPMI + Dialyzed FBS, base medium: RPMI-1640	67.9
log10 compound concentration (M): -6.43136, supplement / serum: RPMI + Normal FBS, base medium: RPMI-1640	74.7
log10 compound concentration (M): -6.90849, supplement / serum: 50μM Hypoxanthine, base medium: RPMI + dialysed FBS	85.8
log10 compound concentration (M): -6.90849, supplement / serum: 50μM Thymidine + 50μM Hypoxanthine, base medium: RPMI + dialysed FBS	72.8
log10 compound concentration (M): -6.90849, supplement / serum: 50μMThymidine, base medium: RPMI + dialysed FBS	72.2
log10 compound concentration (M): -6.90849, supplement / serum: No metabolite, base medium: RPMI + dialysed FBS	84.5
log10 compound concentration (M): -6.90849, supplement / serum: RPMI + Dialyzed FBS + 50μM Hypoxanthine, base medium: RPMI-1640	85.8
log10 compound concentration (M): -6.90849, supplement / serum: RPMI + Dialyzed FBS, base medium: RPMI-1640	84.5
log10 compound concentration (M): -6.90849, supplement / serum: RPMI + Normal FBS, base medium: RPMI-1640	76.6
log10 compound concentration (M): -7.38561, supplement / serum: 50μM Hypoxanthine, base medium: RPMI + dialysed FBS	68.9
log10 compound concentration (M): -7.38561, supplement / serum: 50μM Thymidine + 50μM Hypoxanthine, base medium: RPMI + dialysed FBS	79.5
log10 compound concentration (M): -7.38561, supplement / serum: 50μMThymidine, base medium: RPMI + dialysed FBS	65.2
log10 compound concentration (M): -7.38561, supplement / serum: No metabolite, base medium: RPMI + dialysed FBS	66.8
log10 compound concentration (M): -7.38561, supplement / serum: RPMI + Dialyzed FBS + 50μM Hypoxanthine, base medium: RPMI-1640	68.9
log10 compound concentration (M): -7.38561, supplement / serum: RPMI + Dialyzed FBS, base medium: RPMI-1640	66.8
log10 compound concentration (M): -7.38561, supplement / serum: RPMI + Normal FBS, base medium: RPMI-1640	75
log10 compound concentration (M): -7.86273, supplement / serum: 50μM Hypoxanthine, base medium: RPMI + dialysed FBS	83.7
log10 compound concentration (M): -7.86273, supplement / serum: 50μM Thymidine + 50μM Hypoxanthine, base medium: RPMI + dialysed FBS	83.3
log10 compound concentration (M): -7.86273, supplement / serum: 50μMThymidine, base medium: RPMI + dialysed FBS	70.4
log10 compound concentration (M): -7.86273, supplement / serum: No metabolite, base medium: RPMI + dialysed FBS	75.1
log10 compound concentration (M): -7.86273, supplement / serum: RPMI + Dialyzed FBS + 50μM Hypoxanthine, base medium: RPMI-1640	83.7
log10 compound concentration (M): -7.86273, supplement / serum: RPMI + Dialyzed FBS, base medium: RPMI-1640	75.1
log10 compound concentration (M): -7.86273, supplement / serum: RPMI + Normal FBS, base medium: RPMI-1640	73
log10 compound concentration (M): -8.33985, supplement / serum: 50μM Hypoxanthine, base medium: RPMI + dialysed FBS	84.3
log10 compound concentration (M): -8.33985, supplement / serum: 50μM Thymidine + 50μM Hypoxanthine, base medium: RPMI + dialysed FBS	76.1
log10 compound concentration (M): -8.33985, supplement / serum: 50μMThymidine, base medium: RPMI + dialysed FBS	78.4
log10 compound concentration (M): -8.33985, supplement / serum: No metabolite, base medium: RPMI + dialysed FBS	86.2
log10 compound concentration (M): -8.33985, supplement / serum: RPMI + Dialyzed FBS + 50μM Hypoxanthine, base medium: RPMI-1640	84.3
log10 compound concentration (M): -8.33985, supplement / serum: RPMI + Dialyzed FBS, base medium: RPMI-1640	86.2
log10 compound concentration (M): -8.33985, supplement / serum: RPMI + Normal FBS, base medium: RPMI-1640	92
log10 compound concentration (M): -8.81697, supplement / serum: 50μM Hypoxanthine, base medium: RPMI + dialysed FBS	83.9
log10 compound concentration (M): -8.81697, supplement / serum: 50μM Thymidine + 50μM Hypoxanthine, base medium: RPMI + dialysed FBS	69.4
log10 compound concentration (M): -8.81697, supplement / serum: 50μMThymidine, base medium: RPMI + dialysed FBS	77.4
log10 compound concentration (M): -8.81697, supplement / serum: No metabolite, base medium: RPMI + dialysed FBS	70.8
log10 compound concentration (M): -8.81697, supplement / serum: RPMI + Dialyzed FBS + 50μM Hypoxanthine, base medium: RPMI-1640	83.9
log10 compound concentration (M): -8.81697, supplement / serum: RPMI + Dialyzed FBS, base medium: RPMI-1640	70.8
log10 compound concentration (M): -8.81697, supplement / serum: RPMI + Normal FBS, base medium: RPMI-1640	75.5
log10 compound concentration (M): -9.29409, supplement / serum: 50μM Hypoxanthine, base medium: RPMI + dialysed FBS	77.29
log10 compound concentration (M): -9.29409, supplement / serum: 50μM Thymidine + 50μM Hypoxanthine, base medium: RPMI + dialysed FBS	86.3
log10 compound concentration (M): -9.29409, supplement / serum: 50μMThymidine, base medium: RPMI + dialysed FBS	105
log10 compound concentration (M): -9.29409, supplement / serum: No metabolite, base medium: RPMI + dialysed FBS	84.9
log10 compound concentration (M): -9.29409, supplement / serum: RPMI + Dialyzed FBS + 50μM Hypoxanthine, base medium: RPMI-1640	77.29
log10 compound concentration (M): -9.29409, supplement / serum: RPMI + Dialyzed FBS, base medium: RPMI-1640	84.9
log10 compound concentration (M): -9.29409, supplement / serum: RPMI + Normal FBS, base medium: RPMI-1640	77
log10 compound concentration (M): -9.77121, supplement / serum: 50μM Hypoxanthine, base medium: RPMI + dialysed FBS	85.8
log10 compound concentration (M): -9.77121, supplement / serum: 50μM Thymidine + 50μM Hypoxanthine, base medium: RPMI + dialysed FBS	86.4
log10 compound concentration (M): -9.77121, supplement / serum: 50μMThymidine, base medium: RPMI + dialysed FBS	84.3
log10 compound concentration (M): -9.77121, supplement / serum: No metabolite, base medium: RPMI + dialysed FBS	77
log10 compound concentration (M): -9.77121, supplement / serum: RPMI + Dialyzed FBS + 50μM Hypoxanthine, base medium: RPMI-1640	85.8
log10 compound concentration (M): -9.77121, supplement / serum: RPMI + Dialyzed FBS, base medium: RPMI-1640	77
log10 compound concentration (M): -9.77121, supplement / serum: RPMI + Normal FBS, base medium: RPMI-1640	75.8

O=c1[nH]cc(F)c(=O)[nH]1 [5-fluorouracil]
cell viability, SW620 [2]
Details	0.0001 M	0.01 µM	0.0278 µM	0.0774 µM	0.215 µM	0.599 µM	1.67 µM	4.64 µM	12.9 µM	35.9 µM
metabolite supplement: 1uM folinic acid	6.83%	102%	100.2%	100%	99.7%	99%	83.6%	48.8%	26.2%	12%
metabolite supplement: 50uM thymidine	6.07% and 5.27%	106%	99.3%	97.1%	96.7%	94.2%	74.8%	49.1%	26.6% and 22.5%	10.4%
metabolite supplement: 50uM thymidine + 1uM folinic acid	7.17%	105%	106%	103%	103%	100%	83.2%	51.5%	26.3%	11.6%
metabolite supplement: 50uM thymidine + 250uM folic acid	6.77%	–	–	–	–	97.8%	79.1%	52.8%	26.3%	11.7%
metabolite supplement: 250uM folic acid	6.37%	–	–	–	–	–	83.4%	51.4%	27.3%	11.9%
metabolite supplement: vehicle	6.87% and 5.97%	99.5%	99.5%	101%	97.4%	95.9% and 98.1%	80.3%	53%	29.5% and 26.5%	11.6%
